Laboratory results reported in ChEMBL document CHEMBL4002566, “S-substituted 3,5-dinitrophenyl 1,3,4-oxadiazole-2-thiols and tetrazole-5-thiols as highly efficient antitubercular agents” (Eur J Med Chem, 2017).
Converted amounts (≈) assume the structure as drawn.

Tests used:
Assay type in all cases: functional
[1] = test system: Mycobacterium tuberculosis; assay: Antimycobacterial activity against multidrug-resistant Mycobacterium tuberculosis 8666/2010 after 14 days by micromethod
[2] = test system: Mycobacterium tuberculosis; assay: Antimycobacterial activity against multidrug-resistant Mycobacterium tuberculosis 234/2005 after 14 days by micromethod
[3] = test system: Mycobacterium tuberculosis; assay: Antimycobacterial activity against multidrug-resistant Mycobacterium tuberculosis 9449/2007 after 14 days by micromethod
[4] = test system: Mycobacterium tuberculosis; assay: Antimycobacterial activity against multidrug-resistant Mycobacterium tuberculosis 7357/1998 after 14 days by micromethod
[5] = test system: Mycobacterium tuberculosis; assay: Antimycobacterial activity against multidrug-resistant Mycobacterium tuberculosis Praha 4 after 14 days by micromethod
[6] = test system: Mycobacterium tuberculosis; assay: Antimycobacterial activity against multidrug-resistant Mycobacterium tuberculosis Praha 131 after 14 days by micromethod
[7] = test system: Mycobacterium tuberculosis; assay: Antimycobacterial activity against multidrug-resistant Mycobacterium tuberculosis Praha 1 after 14 days by micromethod
[8] = test system: Mycobacterium tuberculosis; assay: Antimycobacterial activity against multidrug-resistant Mycobacterium tuberculosis Praha 131 after 21 days by micromethod; conditions: Praha 131, 504 h
[9] = test system: Mycobacterium tuberculosis; assay: Antimycobacterial activity against multidrug-resistant Mycobacterium tuberculosis Praha 1 after 21 days by micromethod; conditions: Praha 1, 504 h
[10] = test system: Mycobacterium tuberculosis; assay: Antimycobacterial activity against multidrug-resistant Mycobacterium tuberculosis 7357/1998 after 21 days by micromethod; conditions: 7357/1998, 504 h
[11] = test system: Mycobacterium tuberculosis; assay: Antimycobacterial activity against multidrug-resistant Mycobacterium tuberculosis Praha 4 after 21 days by micromethod; conditions: Praha 4, 504 h
[12] = test system: Mycobacterium tuberculosis; assay: Antimycobacterial activity against multidrug-resistant Mycobacterium tuberculosis 8666/2010 after 21 days by micromethod; conditions: 8666/2010, 504 h
[13] = test system: Mycobacterium tuberculosis; assay: Antimycobacterial activity against multidrug-resistant Mycobacterium tuberculosis 234/2005 after 21 days by micromethod; conditions: 234/2005, 504 h
[14] = test system: Mycobacterium tuberculosis; assay: Antimycobacterial activity against multidrug-resistant Mycobacterium tuberculosis 9449/2007 after 21 days by micromethod; conditions: 9449/2007, 504 h

Compound | MIC ([1]; 8666/2010, 336 h) [µM] | MIC ([2]; 234/2005, 336 h) [µM] | MIC ([3]; 9449/2007, 336 h) [µM] | MIC ([4]; 7357/1998, 336 h) [µM] | MIC ([5]; Praha 4, 336 h) [µM] | MIC ([6]; Praha 131, 336 h) [µM] | MIC ([7]; Praha 1, 336 h) [µM] | MIC [8] [µM] | MIC [9] [µM] | MIC [10] [µM] | MIC [11] [µM] | MIC [12] [µM] | MIC [13] [µM] | MIC [14] [µM] | other results
NNC(=O)c1ccncc1 [ISONIAZID] | 32 (≈ 4.39 µg/mL) | 16 (≈ 2.19 µg/mL) | 64 (≈ 8.78 µg/mL) | 16 (≈ 2.19 µg/mL) | 16 (≈ 2.19 µg/mL) | 16 (≈ 2.19 µg/mL) | 16 (≈ 2.19 µg/mL) |  |  |  |  |  |  |  | 
CC(C)/N=c1\cc2n(-c3ccc(Cl)cc3)c3ccccc3nc-2cc1Nc1ccc(Cl)cc1 [CLOFAZIMINE] | 2 (≈ 0.947 µg/mL) | 0.125 (≈ 0.0592 µg/mL) | 0.125 (≈ 0.0592 µg/mL) | 0.125 (≈ 0.0592 µg/mL) | 0.5 (≈ 0.237 µg/mL) | 0.25 (≈ 0.118 µg/mL) | 0.5 (≈ 0.237 µg/mL) |  |  |  |  |  |  |  | 
CO[C@H]1/C=C/O[C@@]2(C)Oc3c(C)c(O)c4c(O)c(c(/C=N/N5CCN(C)CC5)c(O)c4c3C2=O)NC(=O)/C(C)=C\C=C\[C@H](C)[C@H](O)[C@@H](C)[C@@H](O)[C@@H](C)[C@H](OC(C)=O)[C@@H]1C [RIFAMPIN] | > 8 | > 8 | > 8 | > 8 | > 8 | > 8 | > 8 |  |  |  |  |  |  |  | 
O=[N+]([O-])c1cc(-c2nnc(SCc3ccc(Cl)c(Cl)c3)o2)cc(C(F)(F)F)c1 | 0.5 (≈ 0.225 µg/mL) | 0.5 (≈ 0.225 µg/mL) | 0.5 (≈ 0.225 µg/mL) | 0.5 (≈ 0.225 µg/mL) | 0.25 (≈ 0.113 µg/mL) | 0.5 (≈ 0.225 µg/mL) | 0.5 (≈ 0.225 µg/mL) | 0.5 (≈ 0.225 µg/mL) | 0.5 (≈ 0.225 µg/mL) | 0.5 (≈ 0.225 µg/mL) | 0.5 (≈ 0.225 µg/mL) | 0.5 (≈ 0.225 µg/mL) | 0.5 (≈ 0.225 µg/mL) | 0.5 (≈ 0.225 µg/mL) | 
O=[N+]([O-])c1cc(-n2nnnc2SCc2ccc(Cl)c(Cl)c2)cc([N+](=O)[O-])c1 | 0.25 (≈ 0.107 µg/mL) | 0.25 (≈ 0.107 µg/mL) | 0.25 (≈ 0.107 µg/mL) | 0.25 (≈ 0.107 µg/mL) | 0.25 (≈ 0.107 µg/mL) | 0.25 (≈ 0.107 µg/mL) | 0.25 (≈ 0.107 µg/mL) | 0.5 (≈ 0.214 µg/mL) | 0.5 (≈ 0.214 µg/mL) | 0.5 (≈ 0.214 µg/mL) | 0.25 (≈ 0.107 µg/mL) | 0.25 (≈ 0.107 µg/mL) | 0.25 (≈ 0.107 µg/mL) | 0.25 (≈ 0.107 µg/mL) | 
NCC[C@H](O)C(=O)N[C@@H]1C[C@H](N)[C@@H](O[C@H]2O[C@H](CN)[C@@H](O)[C@H](O)[C@H]2O)[C@H](O)[C@H]1O[C@H]1O[C@H](CO)[C@@H](O)[C@H](N)[C@H]1O [AMIKACIN] | 2 (≈ 1.17 µg/mL) | 0.5 (≈ 0.293 µg/mL) | 0.5 (≈ 0.293 µg/mL) | 1 (≈ 0.586 µg/mL) | 1 (≈ 0.586 µg/mL) | > 32 | 0.5 (≈ 0.293 µg/mL) |  |  |  |  |  |  |  | 
O=[N+]([O-])c1cc(-c2nnc(SCc3ccc(Br)cc3)o2)cc([N+](=O)[O-])c1 | 0.03 (≈ 0.0131 µg/mL) | 0.03 (≈ 0.0131 µg/mL) | 0.03 (≈ 0.0131 µg/mL) | 0.03 (≈ 0.0131 µg/mL) | 0.03 (≈ 0.0131 µg/mL) | 0.03 (≈ 0.0131 µg/mL) | 0.03 (≈ 0.0131 µg/mL) | 0.06 (≈ 0.0262 µg/mL) | 0.06 (≈ 0.0262 µg/mL) | 0.06 (≈ 0.0262 µg/mL) | 0.06 (≈ 0.0262 µg/mL) | 0.06 (≈ 0.0262 µg/mL) | 0.06 (≈ 0.0262 µg/mL) | 0.06 (≈ 0.0262 µg/mL) | 
GENTAMICIN |  |  |  |  |  |  |  |  |  |  |  |  |  |  | MIC [1]: 2 µM; MIC [2]: 0.25 µM; MIC [3]: 1 µM; MIC [4]: 1 µM; MIC [5]: 0.5 µM; MIC [6]: > 8 µM; MIC [7]: 1 µM
O=[N+]([O-])c1cc(-c2nnc(SCc3ccc(Cl)c(Cl)c3)o2)cc([N+](=O)[O-])c1 | 0.03 (≈ 0.0128 µg/mL) | 0.03 (≈ 0.0128 µg/mL) | 0.03 (≈ 0.0128 µg/mL) | 0.03 (≈ 0.0128 µg/mL) | 0.03 (≈ 0.0128 µg/mL) | 0.03 (≈ 0.0128 µg/mL) | 0.03 (≈ 0.0128 µg/mL) | 0.03 (≈ 0.0128 µg/mL) | 0.03 (≈ 0.0128 µg/mL) | 0.03 (≈ 0.0128 µg/mL) | 0.03 (≈ 0.0128 µg/mL) | 0.03 (≈ 0.0128 µg/mL) | 0.03 (≈ 0.0128 µg/mL) | 0.03 (≈ 0.0128 µg/mL) | 
